As a reminder, the IC50 is the concentration needed to halve the response being measured. Higher therefore signals weaker potency.

Some results are limits rather than exact numbers.

The experiment deals with USP7 (Homo sapiens, UniProt Q93009). In words: USP7 inhibitory potency (Table 1). It is filed as biochemical.
USP7, sequence (Q93009 whole entry): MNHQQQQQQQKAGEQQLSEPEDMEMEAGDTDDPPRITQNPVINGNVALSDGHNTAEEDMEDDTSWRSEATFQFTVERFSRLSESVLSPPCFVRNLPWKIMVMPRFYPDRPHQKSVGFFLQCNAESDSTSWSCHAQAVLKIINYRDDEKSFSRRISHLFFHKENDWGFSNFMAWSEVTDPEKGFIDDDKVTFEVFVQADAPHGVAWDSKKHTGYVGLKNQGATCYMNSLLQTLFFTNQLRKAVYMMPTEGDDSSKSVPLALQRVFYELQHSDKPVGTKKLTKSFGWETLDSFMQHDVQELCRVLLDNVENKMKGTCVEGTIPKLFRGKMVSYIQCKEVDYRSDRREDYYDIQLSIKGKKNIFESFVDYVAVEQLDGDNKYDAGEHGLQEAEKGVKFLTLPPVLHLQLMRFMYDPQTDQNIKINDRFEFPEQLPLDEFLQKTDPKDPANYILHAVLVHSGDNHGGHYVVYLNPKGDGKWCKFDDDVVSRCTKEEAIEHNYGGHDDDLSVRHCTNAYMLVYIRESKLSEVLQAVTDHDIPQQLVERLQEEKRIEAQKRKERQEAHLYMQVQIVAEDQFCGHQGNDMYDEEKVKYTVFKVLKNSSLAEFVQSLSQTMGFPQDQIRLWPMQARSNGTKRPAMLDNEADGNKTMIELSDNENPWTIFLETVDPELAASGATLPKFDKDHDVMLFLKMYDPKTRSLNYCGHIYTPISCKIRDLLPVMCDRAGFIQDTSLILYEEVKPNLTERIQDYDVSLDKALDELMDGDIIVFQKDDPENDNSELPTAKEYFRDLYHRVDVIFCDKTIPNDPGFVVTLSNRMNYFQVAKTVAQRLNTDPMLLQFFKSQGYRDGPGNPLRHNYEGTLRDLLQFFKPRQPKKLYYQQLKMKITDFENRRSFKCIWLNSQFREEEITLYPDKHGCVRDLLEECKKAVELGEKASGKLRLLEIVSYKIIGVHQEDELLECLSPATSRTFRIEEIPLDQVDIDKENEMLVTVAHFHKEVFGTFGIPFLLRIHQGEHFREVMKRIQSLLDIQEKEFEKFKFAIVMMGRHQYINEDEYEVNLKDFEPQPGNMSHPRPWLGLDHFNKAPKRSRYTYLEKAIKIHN
As for `CN(C)S(=O)(=O)NCCc1cc2nccc(-c3cc(Cl)cc4c3O[C@@H](C(=O)N3CCNCC3)C4)c2s1` [(R)-N-(2-(7-(5-chloro-2-(piperazine-1-carbonyl)-2,3-dihydrobenzofuran-7-yl)thieno[3,2-b]pyridin-2-yl)ethyl)dimethylamimosulfonylurea], the 50% inhibitory concentration (IC50) was less than 1 µM.

`Cn1nc2c(c1[C@H]1Cc3cc(Cl)cc(-c4ccnc5ccsc45)c3O1)CNCC2` [(R)-7-(5-chloro-2-(2-methyl-4,5,6,7-tetrahydro-2H-pyrazolo[4,3-c]pyridin-3-yl)-2,3-dihydrobenzofuran-7-yl)thieno[3,2-b]pyridine] returned a half-maximal inhibitory concentration (IC50) of less than 1 µM.

Consider `CC[C@@H](O)c1cc2nccc(-c3cc(Cl)cc4c3O[C@@H](c3onc5c3CNCC5)C4)c2s1` [(R)-1-(7-((R)-5-chloro-2-(4,5,6,7-tetrahydroisoxazolo[4,3-c]pyridin-3-yl)-2,3-dihydrobenzofuran-7-yl)thieno[3,2-b]pyridin-2-yl)propan-1-ol], for which the half-inhibitory concentration (IC50) is less than 1 µM.

In the case of `CC(=O)NC(C)c1cc2nccc(-c3cc(Cl)cc4c3O[C@@H](C(=O)N3CCNCC3)C4)c2s1` (stereo partly drawn) [N-(1-(7-((R)-5-chloro-2-(piperazine-1-carbonyl)-2,3-dihydrobenzofuran-7-yl)thieno[3,2-b]pyridin-2-yl)ethyl)acetamide], the IC50 is less than 1 µM.

In turn, `COc1ccc(CN2C(=O)CN(Cc3cc4nccc(-c5cc(Cl)cc6c5O[C@@H](C(=O)N5CCNCC5)C6)c4s3)C2=O)cc1` [(R)-1-((7-(5-chloro-2-(piperazine-1-carbonyl)-2,3-dihydrobenzofuran-7-yl)thieno[3,2-b]pyridin-2-yl)methyl)-3-(4-methoxybenzyl)imidazolidine-2,4-dione] registered an IC50 of less than 1 µM.

For the compound `O=C([C@H]1Cc2cc(Cl)cc(-c3ccnc4cc(CN5C(=O)CSC5=O)sc34)c2O1)N1CCNCC1` [(R)-3-((7-(5-chloro-2-(piperazine-1-carbonyl)-2,3-dihydrobenzofuran-7-yl)thieno[3,2-b]pyridin-2-yl)methyl)thiazolidine-2,4-dione], the IC50 was less than 1 µM.

The compound `O=C([C@H]1Cc2cc(Cl)cc(-c3ccnc4cc(CN5C(=O)CCC5=O)ccc34)c2O1)N1CCNCC1` [(R)-1-((4-(5-chloro-2-(piperazine-1-carbonyl)-2,3-dihydrobenzofuran-7-yl)quinolin-7-yl)methyl)pyrrolidine-2,5-dione] displayed a 50% inhibitory concentration (IC50) of less than 1 µM.

`O=C(C1Cc2cc(Cl)cc(-c3ccnc4[nH]c(Cc5cccnc5)cc34)c2O1)N1CCNCC1` (stereo not drawn) [(5-chloro-7-(2-(pyridin-3-ylmethyl)-1H-pyrrolo[2,3-b]pyridin-4-yl)-2,3-dihydrobenzofuran-2-yl)(piperazin-1-yl)methanone] gave a concentration for half-maximal inhibition (IC50) of 1 to 10 µM.

Turning to `O=C([C@H]1Cc2cc(Cl)cc(-c3ccnc4sccc34)c2O1)N1CCNCC1` [(R)-(5-chloro-7-(thieno[2,3-b]pyridin-4-yl)-2,3-dihydrobenzofuran-2-yl)(piperazin-1-yl)methanone], the half-inhibitory concentration (IC50) lay within 1 to 10 µM.

For `CCC(O)c1cc2ncnc(-c3cc(Cl)cc4c3O[C@@H](c3c5c(nn3C)CCNC5)C4)c2s1` (stereo partly drawn) [1-(4-((R)-5-chloro-2-(2-methyl-4,5,6,7-tetrahydro-2H-pyrazolo[4,3-c]pyridin-3-yl)-2,3-dihydrobenzofuran-7-yl)thieno[3,2-d]pyrimidin-6-yl)propan-1-ol], the concentration for half-maximal inhibition (IC50) was less than 1 µM.

`Cc1c[nH]c2nccc(-c3cc(Cl)cc4c3OC(C(=O)N3CCNCC3)C4)c12` (stereo not drawn) [(5-chloro-7-(3-methyl-1H-pyrrolo[2,3-b]pyridin-4-yl)-2,3-dihydrobenzofuran-2-yl)(piperazin-1-yl)methanone]: the IC50 is 1 to 10 µM.

In the case of `CCC(O)c1cc2nccc(-c3cc(Cl)cc4c3O[C@@H](c3ocnc3CN3CCOCC3)C4)c2s1` (stereo partly drawn) [1-(7-((R)-5-chloro-2-(4-(morpholinomethyl)oxazol-5-yl)-2,3-dihydrobenzofuran-7-yl)thieno[3,2-b]pyridin-2-yl)propan-1-ol], the half-maximal inhibitory concentration (IC50) lay within 1 to 10 µM.

The compound `Cc1cnccc1-c1cc(Cl)cc2c1OC(C(=O)N1CCNCC1)C2` (stereo not drawn) registered a half-maximal inhibitory concentration (IC50) of 10 to 30 µM.

On to `O=C([C@H]1Cc2cc(Cl)cc(-c3ncnc4ccoc34)c2O1)N1CCNCC1` [(R)-(5-chloro-7-(furo[3,2-d]pyrimidin-4-yl)-2,3-dihydrobenzofuran-2-yl)(piperazin-1-yl)methanone], for which the IC50 is 10 to 30 µM.

Take `O=C(C1Cc2cc(Cl)cc(-c3ccnc4c3CCC4)c2O1)N1CCNCC1` (stereo not drawn) [(5-chloro-7-(6,7-dihydro-5H-cyclopenta[b]pyridin-4-yl)-2,3-dihydrobenzofuran-2-yl)(piperazin-1-yl)methanone]: the 50% inhibitory concentration (IC50) was less than 1 µM.

`O=C([C@H]1Cc2cc(Cl)cc(-c3ccnc4cc(CO)sc34)c2O1)N1CC[C@H](O)C1` [((R)-5-chloro-7-(2-(hydroxymethyl)thieno[3,2-b]pyridin-7-yl)-2,3-dihydrobenzofuran-2-yl)((S)-3-hydroxypyrrolidin-1-yl)methanone] had a 50% inhibitory concentration (IC50) of 10 to 30 µM.

In turn, `Nc1nccc(-c2cc(Cl)cc3c2OC(C(=O)N2CCNCC2)C3)c1Cl` (stereo not drawn) [(7-(2-amino-3-chloropyridin-4-yl)-5-chloro-2,3-dihydrobenzofuran-2-yl)(piperazin-1-yl)methanone] displayed an IC50 of 1 to 10 µM.

For the compound `O=C(C1Cc2cc(Cl)cc(-c3ccnc4ccc(F)cc34)c2O1)N1CCNCC1` (stereo not drawn) [(5-chloro-7-(6-fluoroquinolin-4-yl)-2,3-dihydrobenzofuran-2-yl)(piperazin-1-yl)methanone], the IC50 lay within 1 to 10 µM.

For the compound `Clc1cc2c(c(-c3ccnc4ccsc34)c1)O[C@H](c1onc3c1CNCC3)C2` [(S)-3-(5-chloro-7-(thieno[3,2-b]pyridin-7-yl)-2,3-dihydrobenzofuran-2-yl)-4,5,6,7-tetrahydroisoxazolo[4,3-c]pyridine], the IC50 was less than 1 µM.

The compound `O=C(C1Cc2cc(Cl)cc(-c3ccnc4[nH]ccc34)c2O1)N1CCC(O)(c2ccccc2)CC1` (stereo not drawn) [(5-chloro-7-(1H-pyrrolo[2,3-b]pyridin-4-yl)-2,3-dihydrobenzofuran-2-yl)(4-hydroxy-4-phenylpiperidin-1-yl)methanone] had an IC50 of 1 to 10 µM.

The compound `CCCC(O)c1cc2nccc(-c3cc(Cl)cc4c3O[C@@H](c3onc5c3CNCC5)C4)c2s1` (stereo partly drawn) [1-(7-((R)-5-chloro-2-(4,5,6,7-tetrahydroisoxazolo[4,3-c]pyridin-3-yl)-2,3-dihydrobenzofuran-7-yl)thieno[3,2-b]pyridin-2-yl)butan-1-ol] had an IC50 of less than 1 µM.

In the case of `O=C1CCC(=O)N1Cc1cc2ncnc(-c3cc(Cl)cc4c3O[C@@H](c3onc5c3CNCC5)C4)c2o1` [(R)-1-((4-(5-chloro-2-(4,5,6,7-tetrahydroisoxazolo[4,3-c]pyridin-3-yl)-2,3-dihydrobenzofuran-7-yl)furo[3,2-d]pyrimidin-6-yl)methyl)pyrrolidine-2,5-dione], the IC50 is less than 1 µM.

The compound `Cc1cc2ncnc(-c3cc(Cl)cc4c3O[C@@H](c3onc5c3CNCC5)C4)c2s1` [(R)-3-(5-chloro-7-(6-methylthieno[3,2-d]pyrimidin-4-yl)-2,3-dihydrobenzofuran-2-yl)-4,5,6,7-tetrahydroisoxazolo[4,3-c]pyridine] gave an IC50 of less than 1 µM.

For `CC(=O)NCc1cc2nccc(-c3cc(Cl)cc4c3O[C@@H](C(=O)N3CCNCC3)C4)c2s1` [(R)-N-((7-(5-chloro-2-(piperazine-1-carbonyl)-2,3-dihydrobenzofuran-7-yl)thieno[3,2-b]pyridin-2-yl)methyl)acetamide], the IC50 was less than 1 µM.

`N#CCC(O)c1cc2nccc(-c3cc(Cl)cc4c3O[C@@H](C(=O)N3CCNCC3)C4)c2s1` (stereo partly drawn) [3-(7-((R)-5-chloro-2-(piperazine-1-carbonyl)-2,3-dihydrobenzofuran-7-yl)thieno[3,2-b]pyridin-2-yl)-3-hydroxypropanenitrile] registered an IC50 of less than 1 µM.

Compound `CC1(CO)Cc2nccc(-c3cc(Cl)cc4c3O[C@@H](C(=O)N3CCNCC3)C4)c2C1` (stereo partly drawn) [((2R)-5-chloro-7-(6-(hydroxymethyl)-6-methyl-6,7-dihydro-5H-cyclopenta[b]pyridin-4-yl)-2,3-dihydrobenzofuran-2-yl)(piperazin-1-yl)methanone] came in with an IC50 of less than 1 µM.

The compound `CC[C@@H](O)c1cc2nccc(-c3cc(Cl)cc4c3O[C@](C)(c3onc5c3CNCC5)C4)c2s1` [(R)-1-(7-((S)-5-chloro-2-methyl-2-(4,5,6,7-tetrahydroisoxazolo[4,3-c]pyridin-3-yl)-2,3-dihydrobenzofuran-7-yl)thieno[3,2-b]pyridin-2-yl)propan-1-ol] had an IC50 of less than 1 µM.

Regarding `O=C1CCC(=O)N1Cc1cc2ncnc(-c3cc(Cl)cc4c3O[C@@H](c3onc5c3CNCC5)C4)c2s1` [(R)-1-((4-(5-chloro-2-(4,5,6,7-tetrahydroisoxazolo[4,3-c]pyridin-3-yl)-2,3-dihydrobenzofuran-7-yl)thieno[3,2-d]pyrimidin-6-yl)methyl)pyrrolidine-2,5-dione], the concentration for half-maximal inhibition (IC50) was less than 1 µM.

In turn, `O=C(C1Cc2cc(Cl)cc(-c3ccnc4cc[nH]c34)c2O1)N1CCNCC1` (stereo not drawn) [(5-chloro-7-(1H-pyrrolo[3,2-b]pyridin-7-yl)-2,3-dihydrobenzofuran-2-yl)(piperazin-1-yl)methanone] yielded an IC50 of 1 to 10 µM.

Turning to `COc1ccc2c(-c3cc(Cl)cc4c3O[C@@H](c3onc5c3CNCC5)C4)ccnc2c1` [(R)-3-(5-chloro-7-(7-methoxyquinolin-4-yl)-2,3-dihydrobenzofuran-2-yl)-4,5,6,7-tetrahydroisoxazolo[4,3-c]pyridine], the IC50 is less than 1 µM.

`O=C(C1Cc2cc(Cl)cc(-c3ccnc4[nH]ccc34)c2O1)N1CCC(O)(c2ccc(F)cc2Cl)CC1` (stereo not drawn) [(4-(2-chloro-4-fluorophenyl)-4-hydroxypiperidin-1-yl)(5-chloro-7-(1H-pyrrolo[2,3-b]pyridin-4-yl)-2,3-dihydrobenzofuran-2-yl)methanone] had an IC50 of 1 to 10 µM.

In the case of `Cn1nc2c(c1[C@H]1Cc3cc(Cl)cc(-c4ncnc5cc(CO)sc45)c3O1)CNCC2` [(R)-(4-(5-chloro-2-(2-methyl-4,5,6,7-tetrahydro-2H-pyrazolo[4,3-c]pyridin-3-yl)-2,3-dihydrobenzofuran-7-yl)thieno[3,2-d]pyrimidin-6-yl)methanol], the IC50 was less than 1 µM.

Consider `O=C([C@H]1Cc2cc(Cl)cc(-c3ccnc4[nH]ccc34)c2O1)N1CCC(CCO)CC1` [(R)-(5-chloro-7-(1H-pyrrolo[2,3-b]pyridin-4-yl)-2,3-dihydrobenzofuran-2-yl)(4-(2-hydroxyethyl)piperidin-1-yl)methanone], for which the IC50 lay in the range of 10 to 30 µM.

For the origin of these results see patent US20210317134A1, “UBIQUITIN-SPECIFIC-PROCESSING PROTEASE 7 (USP7) MODULATORS AND USES THEREOF” (RAPT THERAPEUTICS, INC., priority 2019, published 2021).
